Measured values as given in US20250326765A1, “PDE4B INHIBITOR AND USE THEREOF” (XIZANG HAISCO PHARMACEUTICAL CO., LTD., priority 2022, published 2025).

Columns and labels:
[1] = biological target: T1, hERG potassium ion channel (Homo sapiens, UniProt Q12809); assay: Test for hERG potassium ion channel (manual patch-clamp, CHO cells); format: cell-based; conditions: CHO cells stably expressing hERG, whole cell patch-clamp; read-out: IC50, inhibition of hERG potassium channel current
T1 construct: expressed in transfected cells
From the text: Experimental Platform: Electrophysiological Manual Patch-Clamp System
Cell line: Chinese hamster ovary (CHO) cell line stably expressing hERG potassium ion channel
Experimental method: CHO (Chinese Hamster Ovary) cells stably expressing hERG potassium channel were subjected to a whole cell patch-clamp technique to record the hERG potassium channel current at room temperature. The glass microelectrode was made of a glass electrode blank (BF150-86-10, Sutter) by a puller. The tip resistance after filling the liquid in the electrode was about 2-5 MQ. The glass microelectrode can be connected to the patch-clamp amplifier by inserting the glass microelectrode into an amplifier probe. The clamping voltage and data recording were controlled and recorded by the pClamp 10 software through a computer. The sampling frequency was 10 kHz, and the filtering frequency was 2 kHz. After the whole cell records were obtained, the cells were clamped at −80 mV, and the step voltage that induced the hERG potassium current (IhERG) was depolarized from −80 mV to +20 mV for 2 s, then repolarized to −50 mV, and returned to −80 mV after 1 s. This voltage stimulation was given every 10 s, and the administration process was started after the hERG potassium current was confirmed to be stable (at least 1 minute). The compound was administered for at least 1 minute at each test concentration, and at least 2 cells (n: 2) were tested at each concentration.
Data processing: Data analysis processing was carried out by using pClamp 10, GraphPad Prism 5, and Excel software. The degree of inhibition on the hERG potassium current (peak value of hERG tail current induced at −50 mV) at different compound concentrations was calculated by the following formula:
[formula] • where Inhibition % represents the percentage inhibition of the compound on the hERG potassium current, and I and Io represent the amplitude of the hERG potassium current after and before administration, respectively.
Compound IC50 was calculated using GraphPad Prism 5 software by fitting according to the following equation: […]

[2] = biological target: T2, PDE4D2 (Homo sapiens, UniProt Q08499); assay: Effect of compounds on PDE4D2 activity (fluorescence polarization kit); format: biochemical; conditions: class symbols
T2 construct: purchased BPS Bioscience 60345
Method: The effect of compounds on PDE4D2 activity was detected by a fluorescence polarization kit (BPS Bioscience, Catalog #60345). During the reaction, 12.5 μL of 0.272 ng/well of an enzyme (final concentration: 0.068 ng/well) and 12.5 μL of the compound diluted in a gradient manner (DMSO concentration: 4%) were first pre-incubated at room temperature for 15 minutes, the same volume of the enzyme at the same concentration and 12.5 μL of PDE buffer containing 4% DMSO were added to the positive control well, and 25 μL of PDE buffer containing 2% DMSO was added to the negative control well. After completion, 25 μL of […] FAM-Cyclic-3′,5′-AMP (final concentration: […]) was added to each well, fully mixed, and then incubated at room temperature with slow shaking for 30 minutes. The Binding Agent was diluted with the Binding Agent Diluent (cAMP) at a ratio of 1:100 for later use, 100 μl/well of the Binding Agent dilution was taken and added to all wells of the test plate and incubated at room temperature with slow shaking for 1 hour.
After the incubation was complete, BMG LRBTECH microplate reader was used for FP detection, with Excitation at 485 nm and Emission at 520 nm. FP was usually represented by mP value.
[formula] • I∥ (S520): fluorescence intensity in parallel direction • I⊥ (P520): fluorescence intensity in perpendicular direction • G: G factor=1
(§1) [formula] • mP(sample): mP of the test compound in a reaction well • mP(negative control): mP in the negative control well • mP(positive control): mP in the positive control well
According to the calculated inhibition rate at each concentration, the IC50 value of each compound was calculated by GraphPad Prism 8 software.

[3] = biological target: T3, PDE4B1 (Homo sapiens, UniProt Q07343); assay: Effect of compounds on PDE4B1 activity (IMAP fluorescence polarization kit); format: biochemical; conditions: class symbols
T3 construct: purchased BPS 60041
Method: The IMAP Reaction Buffer containing 0.1% BSA (5×) in the kit was diluted into a 1-fold reaction buffer containing 1 mM DTT. 0.12 nM PDE4B1 (BPS, Cat #60041) was added to the 1-fold reaction buffer to form a 2-fold enzyme solution. 10 μL of the 2-fold enzyme solution was added to wells of a 384-well reaction plate. For the negative control well, 10 μL of the 1-fold reaction buffer was used instead of the enzyme solution. Centrifugation at 1000 rpm for 1 minute and incubation at room temperature for 15 minutes were carried out. 0.2 uM FAM-labeled cAMP (FAM-cAMP, Molecular Device, Cat #R7506) was added to the 1-fold reaction buffer to form a 2-fold substrate solution. 10 μL of the 2-fold substrate solution was added to each well of the 384-well reaction plate. Centrifugation at 1000 rpm for 1 minute was carried out. A reaction was carried out at room temperature for 20 minutes. IMAP Progressive Binding Buffer A (5×), IMAP Progressive Binding Buffer B (5×), and IMAP Progressive Binding Reagent (provided by IMAP FP IPP Explorer Kit) were prepared into a reaction stop solution according to the instructions for use. 60 μL of an […] reaction stop solution was added to each well of the 384-well reaction plate to stop the reaction, and the reaction product was centrifuged at 1000 rpm for 1 minute. Incubation at room temperature in the dark for 60 minutes was carried out. The mP values (Ex480/Em535 (s), Em535 (p)) were read by a microplate reader (Envision).
FP was usually represented by mP value. mP value for FP measurement=1000*(S−G*P)/(S+G*P) • S: fluorescence intensity in parallel direction • P: fluorescence intensity in perpendicular direction • G: G factor=1
as §1
According to the calculated inhibition rate at each concentration, the IC50 value of each compound was calculated by XLFit excel add-in version 5.4.0.8 software.
Y=Bottom+(Top−Bottom)/(1+(IC50/X)^HillSlope) Fitting formula: […]

T2 sequence (Q08499 303-809): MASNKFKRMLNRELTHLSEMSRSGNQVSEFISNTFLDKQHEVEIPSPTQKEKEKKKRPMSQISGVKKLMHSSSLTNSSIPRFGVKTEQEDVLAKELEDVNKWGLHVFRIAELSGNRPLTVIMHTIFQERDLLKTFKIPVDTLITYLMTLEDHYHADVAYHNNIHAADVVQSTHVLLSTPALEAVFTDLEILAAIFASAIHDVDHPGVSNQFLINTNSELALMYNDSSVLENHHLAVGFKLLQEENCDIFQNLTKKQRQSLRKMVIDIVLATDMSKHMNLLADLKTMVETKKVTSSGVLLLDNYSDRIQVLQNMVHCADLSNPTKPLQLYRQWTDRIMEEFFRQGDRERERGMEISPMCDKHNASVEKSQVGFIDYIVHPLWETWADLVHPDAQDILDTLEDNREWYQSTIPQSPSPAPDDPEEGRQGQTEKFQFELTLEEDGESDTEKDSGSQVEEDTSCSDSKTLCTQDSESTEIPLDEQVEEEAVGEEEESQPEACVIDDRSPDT
T3 sequence (Q07343 whole entry): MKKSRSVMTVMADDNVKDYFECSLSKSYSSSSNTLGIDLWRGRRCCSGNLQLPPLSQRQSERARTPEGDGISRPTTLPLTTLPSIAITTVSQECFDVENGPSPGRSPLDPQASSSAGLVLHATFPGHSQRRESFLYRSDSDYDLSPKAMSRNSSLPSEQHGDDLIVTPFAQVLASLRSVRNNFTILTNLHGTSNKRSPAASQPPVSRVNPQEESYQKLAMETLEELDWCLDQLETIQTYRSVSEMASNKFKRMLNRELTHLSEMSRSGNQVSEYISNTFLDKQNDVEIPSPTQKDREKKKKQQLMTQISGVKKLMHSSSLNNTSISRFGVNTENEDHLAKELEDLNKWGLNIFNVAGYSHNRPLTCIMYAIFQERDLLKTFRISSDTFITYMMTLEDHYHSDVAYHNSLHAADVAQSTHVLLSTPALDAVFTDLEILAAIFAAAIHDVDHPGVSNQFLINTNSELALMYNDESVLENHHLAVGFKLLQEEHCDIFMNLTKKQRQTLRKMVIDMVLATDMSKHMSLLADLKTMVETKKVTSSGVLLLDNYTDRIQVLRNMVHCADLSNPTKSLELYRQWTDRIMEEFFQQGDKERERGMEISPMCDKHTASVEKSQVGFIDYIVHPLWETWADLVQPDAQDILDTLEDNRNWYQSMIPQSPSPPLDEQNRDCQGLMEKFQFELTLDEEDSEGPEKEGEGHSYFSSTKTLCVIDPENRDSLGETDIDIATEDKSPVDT
T1 sequence (Q12809 whole entry): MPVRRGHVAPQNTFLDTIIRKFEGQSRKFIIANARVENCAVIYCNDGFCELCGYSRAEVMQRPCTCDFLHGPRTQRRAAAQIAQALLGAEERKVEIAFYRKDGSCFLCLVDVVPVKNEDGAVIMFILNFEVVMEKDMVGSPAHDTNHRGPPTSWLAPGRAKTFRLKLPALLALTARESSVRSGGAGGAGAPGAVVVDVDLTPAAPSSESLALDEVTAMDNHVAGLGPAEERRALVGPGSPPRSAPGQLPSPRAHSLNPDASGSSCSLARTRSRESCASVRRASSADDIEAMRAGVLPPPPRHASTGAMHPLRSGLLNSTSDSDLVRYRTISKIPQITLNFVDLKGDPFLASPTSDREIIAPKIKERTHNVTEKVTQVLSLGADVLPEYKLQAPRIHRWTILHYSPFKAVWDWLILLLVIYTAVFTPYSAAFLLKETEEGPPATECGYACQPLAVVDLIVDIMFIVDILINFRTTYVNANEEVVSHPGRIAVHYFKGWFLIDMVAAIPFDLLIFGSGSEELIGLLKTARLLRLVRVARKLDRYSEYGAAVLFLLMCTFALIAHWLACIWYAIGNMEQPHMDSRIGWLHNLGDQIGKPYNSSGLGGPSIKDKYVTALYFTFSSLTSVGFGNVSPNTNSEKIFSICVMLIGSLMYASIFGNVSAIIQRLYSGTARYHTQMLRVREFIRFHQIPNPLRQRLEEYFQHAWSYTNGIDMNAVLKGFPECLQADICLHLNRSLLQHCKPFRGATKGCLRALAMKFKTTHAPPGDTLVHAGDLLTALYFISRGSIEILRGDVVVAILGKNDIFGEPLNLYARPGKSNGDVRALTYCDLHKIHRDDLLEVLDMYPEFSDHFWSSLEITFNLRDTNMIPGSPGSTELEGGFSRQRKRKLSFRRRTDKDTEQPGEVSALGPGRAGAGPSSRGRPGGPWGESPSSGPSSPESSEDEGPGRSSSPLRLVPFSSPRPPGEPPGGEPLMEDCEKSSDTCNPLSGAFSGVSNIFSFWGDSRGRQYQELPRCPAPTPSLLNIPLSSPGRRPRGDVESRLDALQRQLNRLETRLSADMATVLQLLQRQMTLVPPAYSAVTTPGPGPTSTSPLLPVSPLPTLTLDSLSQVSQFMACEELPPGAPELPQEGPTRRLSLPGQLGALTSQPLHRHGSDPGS

- IC50 [2]: < 10 nM
- IC50 [3]: < 10 nM
SMILES: [O-][S@+]1CCc2nc(N3CCC=C(c4ncc(Cl)cn4)CC3)nc(NC3(CO)CCC3)c21 [Compound 34]
- IC50 [1]: 13.6 µM
